Assay results from patent US10654890B2, “Cyclic peptide derivative, method for preparing same and composition thereof” (priority 2014, dated 2020).

Key:
[1] = system: senescence-accelerated model mouse SAMP8; assay: Morris water maze test; format: in vivo; details: SAMP8, oral 25 μg/kg/day; vs SAMP8; p<0.05
Text: As a mouse for an in vivo test of the cyclic peptide derivative, senescence-accelerated model mouse SAMP8 which is used as a cognitive disorder model animal of initial Alzheimer's disease accompanied with aging was selected, and as a control, SAMR1 mouse with normal aging was selected.
19-Week old male mice of SAMR1 and SAMP8 were purchased from Japan SLC, Inc., and divided into 5 groups, i.e., mouse group with normal aging (SAMR1), senescence-accelerated model mouse group (SAMP8), {P8+donepezil hydrochloride 1250 μg/kg/day} group as a positive control, and {P8+cyclic peptide derivative 2.5 μg/kg/day} group and {P8+cyclic peptide derivative 25 μg/kg/day} group as a test group. […] After 10 days of an acclimation period, all mice were provided with standard meal (MEQ, Oriental Yeast Company) and body weight of the animal was recorded everyday during the entire test period. […]
(3) {P8+donepezil hydrochloride 1250 μg/kg/day} group: As a positive control, donepezil hydrochloride (Sanyo Chemical Laboratories CO., LTD.) was dissolved in MQ and prepared to have a concentration of 1250 μg/kg (bodyweight), and then orally administered to a SAMP8 for 5 weeks by using a gastric sonde. The concentration was accurately calculated based on the bodyweight which has been measured every day. […]

[2] = biological target: acetylcholine esterase (AChE) (Homo sapiens, UniProt P22303); assay: Acetylcholine esterase inhibitory activity test; format: biochemical; details: 1000 nM; FIG. 11
Sequence of acetylcholine esterase (AChE) (P22303 32-614): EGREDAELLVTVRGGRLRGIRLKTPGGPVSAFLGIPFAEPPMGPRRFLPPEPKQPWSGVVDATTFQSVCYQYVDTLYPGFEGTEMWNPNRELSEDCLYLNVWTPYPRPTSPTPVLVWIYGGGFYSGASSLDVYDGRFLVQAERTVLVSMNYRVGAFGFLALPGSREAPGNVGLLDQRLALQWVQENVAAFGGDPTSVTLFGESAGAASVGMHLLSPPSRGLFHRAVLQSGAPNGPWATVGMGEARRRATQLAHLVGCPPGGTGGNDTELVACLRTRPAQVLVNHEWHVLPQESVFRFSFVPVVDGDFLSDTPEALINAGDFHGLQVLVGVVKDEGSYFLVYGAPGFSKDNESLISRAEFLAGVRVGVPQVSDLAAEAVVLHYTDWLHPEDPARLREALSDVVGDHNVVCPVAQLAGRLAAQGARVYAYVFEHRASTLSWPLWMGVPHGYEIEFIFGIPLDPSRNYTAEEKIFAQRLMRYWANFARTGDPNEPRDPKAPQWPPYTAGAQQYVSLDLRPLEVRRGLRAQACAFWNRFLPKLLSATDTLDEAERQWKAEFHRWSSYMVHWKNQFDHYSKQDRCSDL
Text: Most of existing therapeutic agents for Alzheimer's disease have, as a target mechanism, the inhibitory activity for an acetylcholine esterase which is an enzyme for decomposing acetylcholine as a neurotransmitter. Namely, by inhibiting an acetylcholine esterase, the therapeutic agents for Alzheimer's disease increase an in vivo concentration of acetylcholine.

[3] = system: human leukemia cells (K562); assay: Cell proliferation test, human leukemia cells; format: cell-based; details: 2.5 μM and 25 μM, FIG. 10
Experimental: To see whether or not the astrocyte proliferation accelerating activity of the cyclic peptide derivative is a specific proliferative activity that is limited only to an astrocyte or it is based on a common cell proliferative activity, investigations were made by using normal human dermal fibroblasts (NHDF), human liver cancer cells (HepG2), and human leukemia cells (K562).
Seeding of each cell on a 96 well plate was carried out by adding 100 μl of a cell suspension in which normal human dermal fibroblasts are prepared at 2.5×10^4 cells/ml or human liver cancer cells and human leukemia cells are prepared at 5×10^4 cells/ml. Since the cyclic peptide derivative is added after dissolving it in PBS (−), only PBS (−) was added as a control.

CCC1(C)Oc2cc(ccc2O)C(O)C(NC)C(=O)NC(C(C)C)C(=O)NC1C(=O)NC(CCC(=O)O)C(=O)O (stereo not drawn) [cyclic peptide derivative]
spatial learning ability (time in zone (%) in quadrant 1) [1]: significantly recovered | AChE inhibitory activity [2]: absolutely no AChE activity was observed | inhibitory activity on cell proliferation [3]: a strong inhibitory activity on cell proliferation was observed
